This note sets out measurements from ChEMBL document CHEMBL3351531, “Scaffold hopping of sampangine: discovery of potent antifungal lead compound against Aspergillus fumigatus and Cryptococcus neoformans” (Bioorg Med Chem Lett, 2014).

The test system of one data set is Nakaseomyces glabratus. Briefly: Antifungal activity against Candida glabrata after 24 hrs by serial dilution method. The format is functional.
A further data set concerns Cryptococcus neoformans. Kind of data set: Antifungal activity against Cryptococcus neoformans after 72 hrs by serial dilution method. The format is functional.
In another data set the test system is Nannizzia gypsea. Briefly: Antifungal activity against Microsporum gypseum by serial dilution method. It counts as functional.
The next data set concerns Candida parapsilosis. Kind of data set: Antifungal activity against Candida parapsilosis after 24 hrs by serial dilution method. It counts as functional. The note with it: Lodderomyces parapsilosis.
For another data set, the system named is Aspergillus fumigatus. Briefly: Antifungal activity against Aspergillus fumigatus after 7 days by serial dilution method. The format is functional. The settings on record: 168 h.
The next data set has as its system Trichophyton rubrum. Briefly: Antifungal activity against Trichophyton rubrum by serial dilution method. The format is functional.
The subject of the next data set is Candida albicans. Briefly: Antifungal activity against Candida albicans after 24 hrs by serial dilution method. The format is functional.
Data set [1] can be described thus: Kinetic solubility of the compound in PBS buffer at pH 7.4. The format is physicochemical. The settings on record: read-out: Kinetic_solubility.

In brackets after ≈: the same amount, converted by molar mass.

As for `O=C1c2ccsc2-c2nccc3ccnc1c23`, the MIC80 was found to be 4 µg/mL (≈ 16.8 µM) against Nakaseomyces glabratus; 0.25 µg/mL (≈ 1.05 µM) with Cryptococcus neoformans; 2 µg/mL (≈ 8.39 µM) against Nannizzia gypsea; 8 µg/mL (≈ 33.6 µM) in the data set with Candida parapsilosis; 1 µg/mL (≈ 4.2 µM) against Aspergillus fumigatus; 2 µg/mL (≈ 8.39 µM) in the data set on Trichophyton rubrum. This molecule also had an MIC80 against Candida albicans of 4 µg/mL (≈ 16.8 µM). Besides, in data set [1], the solubility kinetic is 48 µg/mL (≈ 201 µM).
`O=C1c2ccsc2-c2nccc3c(Br)cnc1c23`: the MIC80 in the data set on Nakaseomyces glabratus came out at 4 µg/mL (≈ 12.6 µM); with Cryptococcus neoformans, 4 µg/mL (≈ 12.6 µM); against Nannizzia gypsea it was 0.5 µg/mL (≈ 1.58 µM); against Candida parapsilosis, 16 µg/mL (≈ 50.4 µM); with Aspergillus fumigatus, 8 µg/mL (≈ 25.2 µM); against Trichophyton rubrum it was 2 µg/mL (≈ 6.31 µM). This molecule also registered an MIC80 in the data set on Candida albicans of 4 µg/mL (≈ 12.6 µM).
With `Cn1ccc2c1C(=O)c1nccc3ccnc-2c13`, the MIC80 was 32 µg/mL (≈ 136 µM) in the data set with Nakaseomyces glabratus; 8 µg/mL (≈ 34 µM) against Cryptococcus neoformans; over 64 µg/mL in the data set with Nannizzia gypsea; over 64 µg/mL with Candida parapsilosis; 64 µg/mL (≈ 272 µM) in the data set with Aspergillus fumigatus; 16 µg/mL (≈ 68 µM) in the data set with Trichophyton rubrum. The molecule also came in with an MIC80 in the data set on Candida albicans of 64 µg/mL (≈ 272 µM). Further, the solubility kinetic in data set [1] was 22 µg/mL (≈ 93.5 µM).
Take `Cn1cc2c(c1)-c1nccc3ccnc(c13)C2=O`: the MIC80 in the data set on Nakaseomyces glabratus, in the data set on Cryptococcus neoformans, in the data set with Nannizzia gypsea, against Candida parapsilosis, with Aspergillus fumigatus and against Trichophyton rubrum was over 64 µg/mL each time. Moreover, the MIC80 with Candida albicans was over 64 µg/mL. In addition, the solubility kinetic in data set [1] is 17 µg/mL (≈ 72.3 µM).
Consider `CC1(C)CC2=C(O1)C(=O)c1nccc3ccnc2c13`, for which the MIC80 in the data set with Nakaseomyces glabratus is 0.125 µg/mL (≈ 0.495 µM); in the data set on Cryptococcus neoformans, 2 µg/mL (≈ 7.93 µM); with Nannizzia gypsea, over 64 µg/mL; with Candida parapsilosis, over 64 µg/mL; against Aspergillus fumigatus, 1 µg/mL (≈ 3.96 µM); with Trichophyton rubrum, 8 µg/mL (≈ 31.7 µM). The molecule also showed an MIC80 in the data set on Candida albicans of over 64 µg/mL. The solubility kinetic in data set [1] is 27 µg/mL (≈ 107 µM).
In the case of `COc1cnc2c3c(nccc13)-c1sccc1C2=O`, the MIC80 with Nakaseomyces glabratus, in the data set on Cryptococcus neoformans, in the data set on Nannizzia gypsea, with Candida parapsilosis, with Aspergillus fumigatus and against Trichophyton rubrum was over 64 µg/mL in each case. Also, the MIC80 against Candida albicans is over 64 µg/mL.
As for `O=C1c2ccsc2-c2nc(-c3ccccc3)cc3ccnc1c23`, the MIC80 is over 64 µg/mL with Nakaseomyces glabratus; 4 µg/mL (≈ 12.7 µM) with Cryptococcus neoformans; over 64 µg/mL against Nannizzia gypsea; over 64 µg/mL with Candida parapsilosis; over 64 µg/mL against Aspergillus fumigatus; 16 µg/mL (≈ 50.9 µM) in the data set on Trichophyton rubrum. Besides, in the data set on Candida albicans, the MIC80 turned out to be 32 µg/mL (≈ 102 µM).
`O=C1c2ccoc2-c2nccc3ccnc1c23`: the MIC80 against Nakaseomyces glabratus is 64 µg/mL (≈ 288 µM); against Cryptococcus neoformans, 8 µg/mL (≈ 36 µM); with Nannizzia gypsea it was 16 µg/mL (≈ 72 µM); in the data set on Candida parapsilosis, over 64 µg/mL; against Aspergillus fumigatus, 32 µg/mL (≈ 144 µM); against Trichophyton rubrum it was 8 µg/mL (≈ 36 µM). For the same molecule, in the data set on Candida albicans, the MIC80 stood at 32 µg/mL (≈ 144 µM).
For `O=C1c2cc(Cl)sc2-c2nccc3c(Cl)cnc1c23`, the MIC80 in the data set with Nakaseomyces glabratus is over 64 µg/mL; against Cryptococcus neoformans, over 64 µg/mL; in the data set with Nannizzia gypsea, 8 µg/mL (≈ 26 µM); in the data set with Candida parapsilosis, over 64 µg/mL; with Aspergillus fumigatus, over 64 µg/mL; with Trichophyton rubrum, over 64 µg/mL. Moreover, in the data set on Candida albicans, the MIC80 turned out to be 32 µg/mL (≈ 104 µM).
As to `O=C1c2ccsc2-c2nccc3c(Cl)cnc1c23`, the MIC80 was 0.5 µg/mL (≈ 1.83 µM) against Nakaseomyces glabratus; 0.5 µg/mL (≈ 1.83 µM) in the data set with Cryptococcus neoformans; 0.125 µg/mL (≈ 0.458 µM) against Nannizzia gypsea; over 64 µg/mL against Candida parapsilosis; 2 µg/mL (≈ 7.33 µM) against Aspergillus fumigatus; 2 µg/mL (≈ 7.33 µM) with Trichophyton rubrum. The molecule also returned an MIC80 against Candida albicans of 32 µg/mL (≈ 117 µM).
With `O=C1c2ccsc2-c2nc(-c3cccnc3)cc3ccnc1c23`, the MIC80 in the data set with Nakaseomyces glabratus was over 64 µg/mL; in the data set on Cryptococcus neoformans, 32 µg/mL (≈ 101 µM); against Nannizzia gypsea it was 32 µg/mL (≈ 101 µM); in the data set on Candida parapsilosis it was over 64 µg/mL; against Aspergillus fumigatus, over 64 µg/mL; in the data set with Trichophyton rubrum, over 64 µg/mL. This molecule also returned an MIC80 against Candida albicans of 32 µg/mL (≈ 101 µM).
Consider `O=C1c2cc(Br)sc2-c2nccc3ccnc1c23`, for which the MIC80 was 4 µg/mL (≈ 12.6 µM) in the data set on Nakaseomyces glabratus; 4 µg/mL (≈ 12.6 µM) against Cryptococcus neoformans; 1 µg/mL (≈ 3.15 µM) against Nannizzia gypsea; 64 µg/mL (≈ 202 µM) against Candida parapsilosis; 4 µg/mL (≈ 12.6 µM) with Aspergillus fumigatus; 2 µg/mL (≈ 6.31 µM) in the data set with Trichophyton rubrum. This molecule also gave an MIC80 in the data set on Candida albicans of 8 µg/mL (≈ 25.2 µM).
As to `O=C1c2occc2-c2nccc3ccnc1c23`, the MIC80 is 32 µg/mL (≈ 144 µM) against Nakaseomyces glabratus; 16 µg/mL (≈ 72 µM) with Cryptococcus neoformans; 16 µg/mL (≈ 72 µM) in the data set on Nannizzia gypsea; over 64 µg/mL in the data set with Candida parapsilosis; 32 µg/mL (≈ 144 µM) against Aspergillus fumigatus; 8 µg/mL (≈ 36 µM) against Trichophyton rubrum. The molecule further had an MIC80 in the data set with Candida albicans of 32 µg/mL (≈ 144 µM).
As to `O=C1c2ccccc2-c2nccc3ccnc1c23` [SAMPANGINE], the MIC80 with Nakaseomyces glabratus was 0.125 µg/mL (≈ 0.538 µM); against Cryptococcus neoformans it was 2 µg/mL (≈ 8.61 µM); against Nannizzia gypsea, over 64 µg/mL; with Candida parapsilosis, 4 µg/mL (≈ 17.2 µM); with Aspergillus fumigatus, 16 µg/mL (≈ 68.9 µM); against Trichophyton rubrum it was 16 µg/mL (≈ 68.9 µM). The MIC80 in the data set on Candida albicans was 0.5 µg/mL (≈ 2.15 µM). The solubility kinetic in data set [1] came to 12.6 µg/mL (≈ 54.3 µM).
`Cc1ccccc1-c1cc2ccnc3c2c(n1)-c1sccc1C3=O`: the MIC80 with Nakaseomyces glabratus was over 64 µg/mL; with Cryptococcus neoformans it was over 64 µg/mL; in the data set on Nannizzia gypsea it was over 64 µg/mL; against Candida parapsilosis, over 64 µg/mL; against Aspergillus fumigatus it was over 64 µg/mL; in the data set on Trichophyton rubrum, 32 µg/mL (≈ 97.4 µM). Also, in the data set on Candida albicans, the MIC80 is 32 µg/mL (≈ 97.4 µM).
As to `CC(=O)Nc1ccc(-c2cc3ccnc4c3c(n2)-c2sccc2C4=O)cc1`, the MIC80 against Nakaseomyces glabratus, in the data set on Cryptococcus neoformans, in the data set on Nannizzia gypsea, against Candida parapsilosis, against Aspergillus fumigatus and in the data set with Trichophyton rubrum was over 64 µg/mL each time. This molecule had an MIC80 in the data set with Candida albicans of 32 µg/mL (≈ 86.2 µM).
For `OC(Cn1cncn1)(Cn1cncn1)c1ccc(F)cc1F` [FLUCONAZOLE], the MIC80 is 0.25 µg/mL (≈ 0.816 µM) against Nakaseomyces glabratus; 0.25 µg/mL (≈ 0.816 µM) in the data set with Cryptococcus neoformans; 16 µg/mL (≈ 52.2 µM) against Nannizzia gypsea; 1 µg/mL (≈ 3.27 µM) against Candida parapsilosis; over 64 µg/mL against Aspergillus fumigatus; 0.5 µg/mL (≈ 1.63 µM) against Trichophyton rubrum. In the data set with Candida albicans, the MIC80 stood at 0.5 µg/mL (≈ 1.63 µM).
`CN1CCN(c2cnc3c4c(nccc24)-c2sccc2C3=O)CC1`: the MIC80 is 64 µg/mL (≈ 190 µM) with Nakaseomyces glabratus; 64 µg/mL (≈ 190 µM) against Cryptococcus neoformans; over 64 µg/mL in the data set on Nannizzia gypsea; over 64 µg/mL against Candida parapsilosis; over 64 µg/mL in the data set on Aspergillus fumigatus; over 64 µg/mL against Trichophyton rubrum. In the data set on Candida albicans, the MIC80 is over 64 µg/mL.

The term MIC80 denotes an inhibitory concentration at the 80% level, which refers to growth in some studies and to a panel of isolates in others.
